Test results taken from BindingDB's records for doi:10.1016/j.bmcl.2005.04.021 (Novartis Institutes For Biomedical Research, 2005).

Each molecule was assayed against T1, Adenosine receptor A2b (Homo sapiens, UniProt P29275) (assay: Inhibition of luciferase production elicited by NECA by compound in CHO cells transfected with human adenosine A2b receptor and a luciferase expressing reporter plasmid in a reporter gene assay).
T1 sequence (P29275 whole entry): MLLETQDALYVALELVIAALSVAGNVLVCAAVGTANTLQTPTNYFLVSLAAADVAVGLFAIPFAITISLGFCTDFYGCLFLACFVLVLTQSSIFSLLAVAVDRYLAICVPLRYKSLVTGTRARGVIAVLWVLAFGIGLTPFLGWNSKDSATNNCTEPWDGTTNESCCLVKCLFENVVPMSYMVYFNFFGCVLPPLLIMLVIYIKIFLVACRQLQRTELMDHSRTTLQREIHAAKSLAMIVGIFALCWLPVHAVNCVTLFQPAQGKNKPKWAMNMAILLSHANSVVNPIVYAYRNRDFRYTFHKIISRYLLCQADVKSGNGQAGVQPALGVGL

Structure (SMILES) | KB [nM]
N#Cc1cccc(-c2nc(Nc3ccccn3)sc2-n2cncn2)c1 [3-[2-(Pyridin-2-ylamino)-5-[1,2,4]triazol-1-yl-thiazol-4-yl]-benzonitrile] | 53
N#Cc1cccc(-c2nc(Nc3cccnc3)sc2-n2cncn2)c1 [3-[2-(Pyridin-3-ylamino)-5-[1,2,4]triazol-1-yl-thiazol-4-yl]-benzonitrile] | 86
N#Cc1cccc(-c2nc(Nc3cccnc3)sc2-n2ccnc2)c1 [3-[5-Imidazol-1-yl-2-(pyridin-3-ylamino)-thiazol-4-yl]-benzonitrile] | 92
N#Cc1cccc(-c2nc(Nc3ccncc3)sc2-n2cncn2)c1 [3-[2-(Pyridin-4-ylamino)-5-[1,2,4]triazol-1-yl-thiazol-4-yl]-benzonitrile] | 62
